SMILES strings stand for the structures. Where “and” joins values, the source holds several entries; their conditions need not be identical. Identical values can stand only once. Entries after “also recorded” stand apart in the source; their conditions may differ. Like-named read-outs stand apart in the source and are kept apart here.

In series [1] the test system is H35 hepatoma cells (folinic acid transport). Briefly: Inhibition of folinic acid transport to H35 hepatoma cells. The series is classed as cell-based. The note with it: for IC50: 0.25 h, Folinic acid 2 μM, 15 min uptake, read-out: I50, inhibition of folinic acid transport to H35 hepatoma cells; for transport to H35 hepatoma cells compared to methotrexate: ability to compete with folinic acid transport; for transport to tumor cells compared to methotrexate: fold versus methotrexate.

Series [2] deals with CCRF-CEM human leukemia cells. Briefly: Inhibition of tumor cell growth, CCRF-CEM human leukemia. The series is classed as cell-based.
Series [3] deals with Human manca lymphoid leukemia. Briefly: Inhibition of tumor cell growth, Human manca lymphoid leukemia. The series is classed as cell-based. The note with it: read-out: I50, inhibition of tumor cell growth, Human manca lymphoid leukemia.
The next series concerns H35 hepatoma cells. Briefly: Inhibition of tumor cell growth, H35 hepatoma. The series is classed as cell-based. Conditions: read-out: I50, inhibition of tumor cell growth, H35 hepatoma.
For series [4] the following is noted: result in words, cited from earlier work.
For series [5] the following is noted: cited from earlier work.
The conditions of series [6]: cited from earlier work. The source holds these as a separate data set.
The subject of a further series is three tumor models. Briefly: Antitumor activity in three tumor models (Table I). The series is classed as cell-based. The note with it: result in words. Here is the method:
Manca cell growth assay was performed as described by Thorndike, Gaumont, Kisliuk, Sirotnak, Murthy and Nair in Cancer Research 49:158 (1989). Growth inhibition of H35hepatoma cells was measured as described by Patil, Jones, Nair, Galivan, Maley, Kisliuk, Gaumont, Duch and Ferone in the Journal of Medicinal Chemistry 32:1284 (1989) and that of CCRF-CEM human leukemia cells according to the procedures of McGuire, Graber, Licato, Vincenz, Coward, Nimec and Galivan (Cancer Research 49:4517, 1989).

Series [7] deals with T1, human dihydrofolate reductase (Homo sapiens, UniProt P00374).
T1 construct: Pure human dihydrofolate reductase from lymphoblastoid cells were used; endogenous in cells
T1 sequence (P00374 1-187): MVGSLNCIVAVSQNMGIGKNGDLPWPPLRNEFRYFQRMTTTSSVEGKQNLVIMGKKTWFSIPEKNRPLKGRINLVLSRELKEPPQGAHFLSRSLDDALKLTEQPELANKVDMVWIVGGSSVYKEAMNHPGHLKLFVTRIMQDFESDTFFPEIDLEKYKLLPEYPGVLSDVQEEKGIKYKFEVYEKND
Briefly: Inhibition of dihydrofolate reductase. The series is classed as biochemical. The note with it: pure human enzyme from lymphoblastoid cells. On the procedure: Pure human dihydrofolate reductase from lymphoblastoid cells were used. The enzymatic assay was performed as described by Pastore, Plante and Kisliuk in Methods in Enzymology 34:281 (1974).

Series [8] addresses T2, folylpolyglutamate synthetase (FPGS) (Homo sapiens, UniProt Q05932).
T2 construct: purified human leukemia cell folylpolyglutamate synthetase (FPGS); endogenous in cells; host or cells: CCRF-CEM human leukemia cells
T2 sequence (Q05932 43-587): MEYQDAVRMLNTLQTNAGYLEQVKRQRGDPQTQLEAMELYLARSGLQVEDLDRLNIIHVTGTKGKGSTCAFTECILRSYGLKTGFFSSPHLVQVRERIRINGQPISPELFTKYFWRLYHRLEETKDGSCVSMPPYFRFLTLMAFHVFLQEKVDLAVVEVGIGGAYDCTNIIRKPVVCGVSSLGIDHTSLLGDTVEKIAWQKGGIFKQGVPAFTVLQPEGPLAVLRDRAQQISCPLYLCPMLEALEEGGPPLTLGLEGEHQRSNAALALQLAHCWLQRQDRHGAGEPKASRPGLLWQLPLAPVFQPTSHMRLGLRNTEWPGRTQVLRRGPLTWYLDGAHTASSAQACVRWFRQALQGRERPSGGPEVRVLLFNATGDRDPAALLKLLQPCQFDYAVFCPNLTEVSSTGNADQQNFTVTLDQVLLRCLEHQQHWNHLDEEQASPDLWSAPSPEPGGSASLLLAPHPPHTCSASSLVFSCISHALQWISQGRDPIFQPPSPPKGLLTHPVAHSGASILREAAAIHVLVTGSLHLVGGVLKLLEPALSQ
Briefly: Substrate activity towards CCRF-CEM human leukemia cell folylpolyglutamate synthetase (FPGS). The series is classed as biochemical. Conditions: for Substrate activity: Conc 50 μM, CCRF-CEM human leukemia cell FPGS; for substrate for folylpolyglutamate synthetase: result in words. On the procedure: Compounds 1, 2 and 3 were evaluated as substrates of purified human leukemia cell folylpolyglutamate synthetase (FPGS).
The assays were performed as described by McGuire, Graber, Licato, Vincenz, Coward, Nimec and Galivan in Cancer Research 49:4517 (1989).

Series [9] is classed as physicochemical. From the text: In stage II the mixed anhydride 6 or 7 is reacted with an excess amount of a diester of .tau.-methyleneglutamic acid such as diethyl-.tau.-methyleneglutamic acid. Dimethyl, dibenzyl or di-t-butyl-.tau.-methylene glutamic acid may be substituted for the diethyl derivative. Diethyl-.tau.-methylene glutamate may be added as the hydrochloride form to the mixed anhydride solutions 6 or 7, followed by the addition of an equal amount or an excess of an acid acceptor such as triethylamine. Alternatively, diethyl-.tau.-methyleneglutamate hydrochloride may be dissolved in a suitable solvent such as DMF, neutralized with an equivalent amount of the acid acceptor, and then added to the mixed anhydride solution. This reaction mixture is stirred for 18 hours at 25-30° C. and the solvent is removed by evaporation under reduced pressure. The resulting coupled product is stirred with an excess of a mixture of 0.1 N NaOH and acetonitrile for 18 hours to give target compounds 1 or 2. […] The precipitate can be recovered by filtration, washed and dried.
For the preparation of compound 3 (Scheme 3), the solution of the mixed anhydride 6 is reacted with an excess amount of the diester of 3-hydroxyglutamic acid such as dimethyl-3-hydroxyglutamate. Diethyl, dibenzyl or di-t-butyl-3-hydroxyglutamate may be substituted for the dimethyl derivative. Dimethyl-3-hydroxyglutamate may be added to the solution of the mixed anhydrie as the hydrochloride followed by the addition of an equivalent or excess amount of the acid acceptor such as triethylamine. Alternatively, dimethyl-3-hydroxyglutamate hydrochloride may be dissolved in a suitable solvent such as DMF, neutralized with an equivalent amount of the acid acceptor such as triethylamine or N-methylmorpholine and then added to the mixed anhydride solution. The reaction mixture is then stirred for 18-24 hours at 25-30° C. and the solvent is removed by rotary evaporation under reduced pressure The resulting product is stirred with an excess of a 3:1 mixture of 0.1 N NaOH:acetonitrile for 10-18 hours to give target compound 3. […]

For series [10] the following is noted: cited from earlier work. The source holds these as a separate data set.
The next series concerns mammalian cells. The note with it: versus MTX; cited from earlier work.
The next series deals with antitumor activity. Conditions: result in words; cited from earlier work.
Setting [11] is: Homo sapiens; CCRF-CEM; value marked *: corrected for the presence of the d-enantiomer of methyleneglutamate; duplicate experiments; read-out: I50, inhibition of tumor cell growth, CCRF-CEM human leukemia (*).
Setting [12] is: Homo sapiens; CCRF-CEM; values correspond to duplicate experiments; no asterisk; read-out: I50, inhibition of tumor cell growth, CCRF-CEM human leukemia.
Where [13] appears, read: human leukemia cells; on a comparative basis.

Regarding `CN(Cc1cnc2nc(N)nc(N)c2n1)c1ccc(C(=O)N[C@@H](CCC(=O)O)C(=O)O)cc1` [Methotrexate, reference compound], the IC50 in series [1] was found to be 18 nM; in series [2] (CCRF-CEM; values correspond to duplicate experiments; no asterisk; read-out: I50, inhibition of tumor cell growth, CCRF-CEM human leukemia), 8 nM; in [2] (Homo sapiens, CCRF-CEM; values correspond to duplicate experiments; no asterisk; read-out: I50, inhibition of tumor cell growth, CCRF-CEM human leukemia), 12 nM; in series [3] it was 6 nM; in the series on H35 hepatoma cells, 10 nM. For the same molecule, the figures for the “metabolism to polyglutamyl derivatives” value in series [4] and in series [4] (listed as MTX) were “undergo polyglutamylation” and “metabolized to their poly-.tau.-glutamyl derivatives”, respectively. Also, the “metabolism to poly-glutamates in human tissues” value in series [5] is recorded as “metabolism of the well known anticancer drug methotrexate to its poly-.tau.-glutamates in human tissues”. For the same molecule, in series [6], the “formation of poly-glutamyl metabolites in rodent tissues” value is recorded as “formation of these metabolites in rodent tissues”.

Consider `C=C(CC(NC(=O)c1ccc(C(CC)Cc2cnc3nc(N)nc(N)c3n2)cc1)C(=O)O)C(=O)O` (stereo not shown) [Compound 2, 4-amino-4-deoxy-10-ethyl-10-deazapteroyl-.tau.-methyleneglutamic acid], for which the IC50 in [1] is 3 nM; in series [2] (setting [11]), 6 nM; in series [2] (setting [12]), 4 nM; in [3], 9 nM; in the series on H35 hepatoma cells, 11 nM; in series [7] it was 32 nM. Besides, in series [1], the “transport to H35 hepatoma cells compared to methotrexate” value is recorded as “transported more efficiently to H35 hepatoma cells than methotrexate”. Further, in [1], the “transport to tumor cells compared to methotrexate” value is reported as “three to five times more efficiently than methotrexate”. Further, the “inhibition of growth of human leukemia cells compared to methotrexate” value in [2] (setting [13]) is given as “twice as powerful as methotrexate”. Further, the “antitumor activity in three tumor models” value in the series with three tumor models is “excellent antitumor activity”. In addition, the Substrate activity in series [8] was 3 and 6. Further, the “substrate for folylpolyglutamate synthetase” value in [8] is recorded as “not substrates of CCRF-CEM human leukemia cell folylpolyglutamate synthetase; also recorded: None of the new antifolates (1, 2 or 3) is a substrate for folylpolyglutamate synthetase”. Further, the solubility in alkali result in series [9] is reported as “soluble in alkali”.

Regarding `C#CCN(Cc1ccc2nc(N)[nH]c(=O)c2c1)c1ccc(C(=O)N[C@@H](CCC(=O)O)C(=O)O)cc1` [CB 3717, N^10-propargyl-5,8-dideazafolic acid], the “conversion to polyglutamyl derivative in normal murine tissues” value in [10] is recorded as “converted to its polyglutamyl derivatives in normal murine tissues”.

Turning to `Nc1nc(N)c2nc(CCc3ccc(C(=O)NC(C(=O)O)C(O)CC(=O)O)cc3)cnc2n1` (stereo not shown) [Compound 3, 4-amino-4-deoxy-10-deazapteroyl-3-hydroxyglutamic acid], the IC50 came out at 15 nM in [3], 28 nM in the series on H35 hepatoma cells and 33 nM in [7]. For the same molecule, the “antitumor activity in three tumor models” value in the series with three tumor models was “excellent antitumor activity”. In series [8], the Substrate activity is 8 and 10. Also, the “substrate for folylpolyglutamate synthetase” value in [8] is “not substrates of CCRF-CEM human leukemia cell folylpolyglutamate synthetase; also recorded: None of the new antifolates (1, 2 or 3) is a substrate for folylpolyglutamate synthetase”. For the same molecule, the solubility in alkali result in series [9] is “soluble in alkali”.

For `Nc1nc(N)c2nc(CCc3ccc(C(=O)N[C@@H](CCC(=O)O)C(=O)O)cc3)cnc2n1` [10-Deazaaminopterin, reference compound], the “metabolism to polyglutamyl derivatives” value in [4] was “undergo polyglutamylation”. In [8], this molecule yielded a Substrate activity of 1020.

As to `C=C(CC(NC(=O)c1ccc(CCc2cnc3nc(N)nc(N)c3n2)cc1)C(=O)O)C(=O)O` (stereo not shown) [Compound 1, 4-amino-4-deoxy-10-deazapteroyl-.tau.-methyleneglutamic acid], the IC50 in series [1] came to 4 nM; in series [2] (setting [11]), 5 nM; in series [2] (setting [12]) it was 4 nM; in [3] it was 7 nM; in the series with H35 hepatoma cells it was 9 nM; in series [7], 30 nM. The “transport to H35 hepatoma cells compared to methotrexate” value in series [1] is “transported more efficiently to H35 hepatoma cells than methotrexate”. For the same molecule, in series [1], the “transport to tumor cells compared to methotrexate” value is “three to five times more efficiently than methotrexate”. The “inhibition of growth of human leukemia cells compared to methotrexate” value in [2] (setting [13]) was “twice as powerful as methotrexate”. Also, the “antitumor activity in three tumor models” value with three tumor models is “excellent antitumor activity”. Besides, the Substrate activity in series [8] is 5 and 3. Also, the “substrate for folylpolyglutamate synthetase” value in series [8] is listed as “not substrates of CCRF-CEM human leukemia cell folylpolyglutamate synthetase; also recorded: None of the new antifolates (1, 2 or 3) is a substrate for folylpolyglutamate synthetase”. In addition, the solubility in alkali entry in series [9] is recorded as “soluble in alkali”.

Consider `CCC(Cc1cnc2nc(N)nc(N)c2n1)c1ccc(C(=O)N[C@@H](CCC(=O)O)C(=O)O)cc1` (stereo partly shown) [Compound 10-EDAM, 10-ethyl-10-deazaaminopterin], for which, in the series on mammalian cells, the “transport to mammalian cells compared to MTX” value is listed as “enhanced transport to mammalian cells compared to MTX”. Besides, the “metabolism to polyglutamyl derivatives” value is “metabolized to their poly-.tau.-glutamyl derivatives” in [4] and “undergo polyglutamylation” in series [4] (listed as 10-ethyl derivative). In the series on antitumor activity, the antitumor activity result is given as “wide spectrum of antitumor activity”.

The values above are taken from US4996207A, “Three new non-polyglutamatable deazaaminopterins” (priority 1990, dated 1991).
